Test results from patent publication US20250296940A1, “ANNULATED 2-AMINO-3-CYANO THIOPHENES AND DERIVATIVES FOR THE TREATMENT OF CANCER” (Boehringer Ingelheim Int'l GmbH Corp., priority 2021, published 2025).
≈ marks a conversion by molar mass, not a printed value. Like-named read-outs stand apart in the source and are kept apart here.

Assays:
Ba/F3 KRASG12C cells = Ba/F3 KRASG12C cells (Homo sapiens, UniProt P01116, G12C, cells depend on it); assay: Ba/F3 cell model proliferation assay (AlamarBlue, 72 h); type: cell-based; conditions: without IL-3, read-out: IC50 Ba/F3 KRASG12C
Method: Plasmids containing KRASG12 mutants were obtained from GeneScript. […] Retrovirus was added to Ba/F3 cells. To ensure infection, 4 μg/mL polybrene was added and cells were spinfected. […] As a control, parental Ba/F3 cells were used to show selection status. Selection was considered successful when parental Ba/F3 cells cultures died. […] Ba/F3 cells harboring the empty vector were used as a control. Approximately ten days before conducting the experiments, puromycin was left out.
Compounds were added using an Access Labcyte Workstation with a Labcyte Echo 550 or 555 acoustic dispenser. All treatments were performed in technical duplicates. The assay is run using a fully automated robotic system. […] AlamarBlue™ (ThermoFisher), a viability stain, was added and fluorescence measured in the PerkinElmer Envision HTS Multilabel Reader. The raw data were imported into and analyzed with the Boehringer Ingelheim proprietary software MegaLab (curve fitting based on the program PRISM, GraphPad Inc.).

[1] = test system: pERK (Thr202/Tyr204) in NCI-H358 cells (KRAS G12C mutation); assay: ERK phosphorylation assay (assay 1, NCI-H358); type: cell-based; conditions: Homo sapiens; NCI-H358 (assay 1), 1 h compound incubation
Description: Low IC50 values in this assay setting are indicative of high potency of the compounds according to the invention. […]
• RPMI-1640 Medium (ATCC® 30-2001™) • Fetal Bovine Serum (FBS) from HyClone (SH30071.03) • Non-essential amino acids from Thermo Fischer Scientific (11140035) • Pyruvate from Thermo Fischer Scientific (11360039) • Glutamax from Thermo Fischer Scientific (35050061) • 384 plates from Greiner Bio-One (781182) • Proxiplate™ 384 from PerkinElmer Inc. (6008280) • AlphaLISA SureFire Ultra p-ERK1/2 (Thr202/Tyr204) Assay Kit (ALSU-PERK-A500) EGF from Sigma (E4127) • Acceptor Mix: Protein A Acceptor Beads from PerkinElmer (6760137M) • Donor Mix: AlphaScreen Streptavidin-coated Donor Beads from PerkinElmer (6760002) • Trametinib • Staurosporine from Sigma Aldrich (S6942)
Cells are seeded at 40,000 cells per well in/60 μL of RPMI with 10% FBS, non-essential amino acids, pyruvate and glutamax in Greiner TC 384 plates. The cells are incubated for 1 h at room temperature and then incubated overnight in an incubator at 37° C. and 5% CO2 in a humidified atmosphere. 60 nL compound solution (10 mM DMSO stock solution) is then added using a Labcyte Echo 550 device. After a 1 h incubation in the aforementioned incubator the medium is removed after centrifugation and the cells lysed by addition of 20 μL of 1.6-fold lysis buffer from the AlphaLISA SureFire Ultra pERK1/2 (Thr202/Tyr204) Assay Kit with added protease inhibitors, 100 nM trametinib+100 nM staurosporine. After 20 minutes of incubation at room temperature with shaking, 6 μL of each lysate sample is transferred to a 384-well Proxiplate and analyzed for pERK (Thr202/Tyr204) with the AlphaLISA SureFire Ultra pERK1/2 (Thr202/Tyr204) Assay Kit. 3 μL Acceptor Mix and 3 μL Donor Mix are added under subdued light and incubated for 2 h at room temperature in the dark, before the signal is measured on a PerkinElmer Envision HTS Multilabel Reader. The raw data were imported into and analyzed with the Boehringer Ingelheim proprietary software MegaLab (curve fitting based on the program PRISM, GraphPad Inc.).
IC50 values of representative compounds (I) according to the invention measured with this assay are presented in table 22 (IC50s from assay 2 are marked with *, all others are from assay 1).

[2] = test system: NCI-H358 cells (NSCLC, G12C); assay: NCI-H358 CTG proliferation assay (120 h); type: cell-based; conditions: Homo sapiens, NCI-H358, CellTiter-Glo
Method: NCI-H358 cells (ATCC No. CRL-5807) are dispensed into white bottom opaque 96 well plates (Perkin Elmer cat no. 5680) at a density of 2000 cells per well in 100 μL RPMI-1640 ATCC-Formulation (Gibco #A10491)+10% FCS (fetal calf serum). […] Compounds (10 mM stock in DMSO) are added at logarithmic dose series using the HP Digital Dispenser D300 (Tecan), normalizing for added DMSO and including DMSO controls. For the TO time point measurement, untreated cells are analyzed at the time of compound addition. Plates are incubated for 120 h, and cell viability is measured using CellTiter-Glo luminescent cell viability reagent (Promega product code G7570). Viability (stated as percent of control) is defined as relative luminescence units RLU of each well divided by the RLU of cells in DMSO controls. IC50 values are determined from viability measurements by non-linear regression using a four parameter model.
IC50 values of representative compounds according to the invention measured with these assays in the indicated cell lines: […]

[3] = Solubility measurement (DMSO solution precipitation method); type: physicochemical; conditions: aqueous buffer, kinetic from dmso stock, ambient temperature
Method: The DMSO solution is diluted with an aqueous medium (McIlvaine buffer with pH=4.5 or 6.8) to a final concentration of 250 μM. After 24 h of shaking at ambient temperature a potentially formed precipitate is removed by filtration. The concentration of the test compound in the filtrate is determined by LC-UV methods by calibrating the signal to the signal of a reference solution with complete dissolution of the test compound in acetonitrile/water (1:1) with known concentration.
Data obtained with the disclosed assay for a selection of compounds (I) according to the invention: […]

[4] = McIlvaine buffer pH 4.5, 24 h, read-out: Solubility pH 4.5
[5] = McIlvaine buffer pH 6.8, 24 h, read-out: Solubility pH 6.8

Chain of Ba/F3 KRASG12C cells (P01116 whole entry G12C): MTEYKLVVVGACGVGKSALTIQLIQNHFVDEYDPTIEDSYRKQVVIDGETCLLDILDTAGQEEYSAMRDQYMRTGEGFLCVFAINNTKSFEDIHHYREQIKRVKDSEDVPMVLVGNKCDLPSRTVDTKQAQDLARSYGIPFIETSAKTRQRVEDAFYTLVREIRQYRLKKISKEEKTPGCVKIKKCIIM

| SMILES | GI50 (Ba/F3 KRASG12C cells) | IC50 [1] | IC50 [2] | solubility at 24 h [3, 4] | solubility at 24 h [3, 5] |
| --- | --- | --- | --- | --- | --- |
| C[C@H](Oc1nc(-c2noc3c2CCC[C@@]32CCCc3sc(N)c(C#N)c32)cc(N2C[C@H](C)N(C(=O)/C=C/c3cccnc3)[C@@H](C)C2)n1)[C@@H]1CCCN1C [Ib-8] | 25.1 nM | 26.9 nM | 85 nM | 102 µg/mL (≈ 139 µM) | 13 µg/mL (≈ 17.7 µM) |
| C=C(F)C(=O)N1[C@@H](C)CN(c2cc(-c3noc4c3CCC[C@@]43CCCc4sc(N)c(C#N)c43)nc(O[C@@H](C)[C@@H]3CCCN3C)n2)C[C@@H]1C [Ib-6] | 1.6 nM | 5.3 nM | 2 nM | 113 µg/mL (≈ 167 µM) | 50 µg/mL (≈ 74.1 µM) |
| COC/C=C/C(=O)N1[C@@H](C)CN(c2cc(-c3noc4c3CCC[C@@]43CCCc4sc(N)c(C#N)c43)nc(O[C@@H](C)[C@@H]3CCCN3C)n2)C[C@@H]1C [Ib-9] | 15.1 nM | 373 nM | 90 nM | 83 µg/mL (≈ 118 µM) | 114 µg/mL (≈ 163 µM) |
| C=C(F)C(=O)N1[C@@H](C)CN(c2cc(O[C@@H](C)[C@@H]3CCCN3C)nc(-c3onc4c3CCC[C@@]43CCCc4sc(N)c(C#N)c43)n2)C[C@@H]1C [Ia-1] | 0.8 nM | 8.4 nM | 1 nM | 125 µg/mL (≈ 185 µM) | 57 µg/mL (≈ 84.5 µM) |
| C=C(F)C(=O)N1[C@@H](C)CN(c2cc(-c3onc4c3CCC[C@@]43CCCc4sc(N)c(C#N)c43)nc(O[C@@H](C)[C@@H]3CCCN3C)n2)C[C@@H]1C [Ia-3] | 3.7 nM | 16.4 nM | 7 nM | 116 µg/mL (≈ 172 µM) | < 1 µg/mL |
| C[C@H](Oc1nc(-c2noc3c2CCC[C@@]32CCCc3sc(N)c(C#N)c32)cc(N2C[C@H](C)N(C(=O)/C=C/CF)[C@@H](C)C2)n1)[C@@H]1CCCN1C [Ib-7] | 1.6 nM | 4.7 nM | 4 nM | > 139 µg/mL | 108 µg/mL (≈ 157 µM) |

These reach a lower GI50 (Ba/F3 KRASG12C cells). Values come first.

| GI50 (Ba/F3 KRASG12C cells) | IC50 [1] | IC50 [2] | solubility at 24 h [3, 4] | solubility at 24 h [3, 5] | SMILES |
| --- | --- | --- | --- | --- | --- |
| 0.2 nM | 1.3 nM | < 1 nM | 130 µg/mL (≈ 198 µM) | 121 µg/mL (≈ 184 µM) | C=CC(=O)N1[C@@H](C)CN(c2cc(O[C@@H](C)[C@@H]3CCCN3C)nc(-c3noc4c3CCC[C@@]43CCCc4sc(N)c(C#N)c43)n2)C[C@@H]1C [Ib-3] |
| 0.1 nM | 1.1 nM | < 1 nM | > 156 µg/mL | 126 µg/mL (≈ 192 µM) | C=CC(=O)N1[C@@H](C)CN(c2cc(O[C@@H](C)[C@@H]3CCCN3C)nc(-c3onc4c3CCC[C@@]43CCCc4sc(N)c(C#N)c43)n2)C[C@@H]1C [Ia-2] |
| 0.5 nM | 7.7 nM | 1 nM | 116 µg/mL (≈ 172 µM) | 40 µg/mL (≈ 59.3 µM) | C=C(F)C(=O)N1[C@@H](C)CN(c2cc(O[C@@H](C)[C@@H]3CCCN3C)nc(-c3noc4c3CCC[C@@]43CCCc4sc(N)c(C#N)c43)n2)C[C@@H]1C [Ib-5] |
| 0.1 nM | 0.4 nM | < 1 nM | > 140 µg/mL | 129 µg/mL (≈ 196 µM) | C=CC(=O)N1[C@@H](C)CN(c2cc(-c3noc4c3CCC[C@@]43CCCc4sc(N)c(C#N)c43)nc(O[C@@H](C)[C@@H]3CCCN3C)n2)C[C@@H]1C [Ib-4] |
| 0.5 nM | 4.2 nM | 1 nM |  |  | C[C@H](Oc1cc(N2C[C@H](C)N(C(=O)/C=C/CF)[C@@H](C)C2)nc(-c2noc3c2CCC[C@@]32CCCc3sc(N)c(C#N)c32)n1)[C@@H]1CCCN1C [Ib-1] |
| 0.1 nM |  | < 1 nM | > 163 µg/mL | > 160 µg/mL | C=CC(=O)N1[C@@H](C)CN(c2cc(-c3onc4c3CCC[C@@]43CCCc4sc(N)c(C#N)c43)nc(O[C@@H](C)[C@@H]3CCCN3C)n2)C[C@@H]1C [Ia-4] |
| 0.3 nM | 1 nM | 1 nM | 111 µg/mL (≈ 170 µM) | 77 µg/mL (≈ 118 µM) | C=CC(=O)N1CCN(c2cc(O[C@@H](C)[C@@H]3CCCN3C)nc(-c3noc4c3CCC[C@@]43CCCc4sc(N)c(C#N)c43)n2)CC12CC2 [Ib-2] |
